Experimental data: patent US20090099177A1, “PYRIDYL COMPOUNDS” (priority 2006, published 2009)
Where a name gives a salt, the structure may show the parent alone.

Each molecule was assayed against T1, human EP1 receptor (Homo sapiens, UniProt P34995) (assay: human EP1 calcium mobilisation assay). Settings: human EP1, CHO-K1 cells, antagonism of PGE2; averages of a number of experiments; read-out: functional pKi value (converted).
T1 construct: expressed in transfected cells; host or cells: CHO-K1
T1 sequence (P34995 1-402): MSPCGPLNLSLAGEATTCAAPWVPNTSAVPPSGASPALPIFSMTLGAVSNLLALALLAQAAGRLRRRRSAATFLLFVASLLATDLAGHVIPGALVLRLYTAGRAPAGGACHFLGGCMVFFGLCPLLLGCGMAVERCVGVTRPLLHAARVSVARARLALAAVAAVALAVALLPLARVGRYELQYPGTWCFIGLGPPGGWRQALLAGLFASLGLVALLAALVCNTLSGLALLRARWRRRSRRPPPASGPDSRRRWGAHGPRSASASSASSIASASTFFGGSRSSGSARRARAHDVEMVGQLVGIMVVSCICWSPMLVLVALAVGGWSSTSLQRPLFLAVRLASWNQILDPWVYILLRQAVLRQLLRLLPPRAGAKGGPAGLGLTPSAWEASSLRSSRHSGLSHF
Type: cell-based
Protocol: Briefly, the antagonist properties of compounds are assessed by their ability to inhibit the mobilisation of intracellular calcium ([Ca^2+]i) in response to activation of EP1 or EP3 receptors by the natural agonist hormone prostaglandin E2 (PGE2). Increasing concentrations of antagonist reduce the amount of calcium that a given concentration of PGE2 can mobilise. The net effect is to displace the PGE2 concentration-effect curve to higher concentrations of PGE2. The amount of calcium produced is assessed using a calcium-sensitive fluorescent dye such as Fluo-4, AM and a suitable instrument such as a Fluorimetric Imaging Plate Reader (FLIPR). Increasing amounts of [Ca^2+]i produced by receptor activation increase the amount of fluorescence produced by the dye and give rise to an increasing signal. The signal may be detected using the FLIPR instrument and the data generated may be analysed with suitable curve-fitting software.
The human EP1 or EP3 calcium mobilisation assay (hereafter referred to as ‘the calcium assay’) utilises Chinese hamster ovary-K1 (CHO-K1) cells into which a stable (pCIN; BioTechniques 20 (1996): 102-110) vector containing either EP1 or EP3 cDNA has previously been transfected. Cells are cultured in suitable flasks containing culture medium such as DMEM:F-12 supplemented with 10% v/v foetal calf serum, 2 mM L-glutamine, 0.25 mg/ml geneticin, 100 μM flurbiprofen and 10 μg/ml puromycin.
For assay, cells are harvested using a proprietary reagent that dislodges cells such as Versene. Cells are re-suspended in a suitable quantity of fresh culture media for introduction into a 384-well plate. Following incubation for 24 hours at 37° C. the culture media is replaced with a medium containing Fluo-4 and the detergent pluronic acid, and a further incubation takes place. Concentrations of compounds are then added to the plate in order to construct concentration-effect curves. This may be performed on the FLIPR in order to assess the agonist properties of the compounds. Concentrations of PGE2 are then added to the plate in order to assess the antagonist properties of the compounds.
The data so generated may be analysed by means of a computerised curve-fitting routine. The concentration of compound that elicits a half-maximal inhibition of the calcium mobilisation induced by PGE2 (pIC50) may then be estimated.
Work on `O=C(Cc1ccccc1)Nc1cccc(Cc2cc(Cl)ccc2OCc2ccccc2)n1` [Example 2, N-[6-({5-Chloro-2-[(phenylmethyl)oxy]phenyl}methyl)-2-pyridinyl]-2-phenylacetamide] yielded a Ki of no more than 10 µM.
Work on `O=C(Nc1cccc(Cc2cc(Cl)ccc2OCc2ccccc2)n1)c1ccccc1` [Example 3, N-[6-({5-Chloro-2-[(phenylmethyl)oxy]phenyl}methyl)-2-pyridinyl]benzamide] yielded a Ki of no more than 0.316 µM.
`O=C(NCc1ccccn1)c1cccc(Cc2cc(Cl)ccc2OCc2ccccc2)n1` [Example 7, 6-({5-Chloro-2-[(phenylmethyl)oxy]phenyl}methyl)-N-(2-pyridinylmethyl)-2-pyridinecarboxamide] gave a Ki of no more than 0.316 µM.
Molecule `CC(C)COc1ccc(Cl)cc1Cc1cccc(-c2nc3cnc4ccccc4c3[nH]2)n1` [Example 24, 2-[6-({5-Chloro-2-[(2-methylpropyl)oxy]phenyl}methyl)-2-pyridinyl]-1H-imidazo[4,5-c]quinoline hydrochloride] has a Ki of no more than 0.316 µM.
For `CN1CCN(c2ccc3nc(-c4cccc(Cc5cc(Cl)ccc5OCc5ccccc5)n4)[nH]c3c2)CC1` [Example 26, 2-[6-({5-Chloro-2-[(phenylmethyl)oxy]phenyl}methyl)-2-pyridinyl]-5-(4-methyl-1-piperazinyl)-1H-benzimidazole Hydrochloride], the Ki was no more than 10 µM.
For `Fc1cccc2[nH]c(-c3cccc(Cc4cc(Cl)ccc4OCc4ccccc4)n3)nc12` [Example 32, 2-[6-({5-Chloro-2-[(phenylmethyl)oxy]phenyl}methyl)-2-pyridinyl]-4-fluoro-1H-benzimidazolehydrochioride], the Ki was no more than 10 µM.
`Clc1ccc(OCc2ccccc2)c(Cc2cccc(-c3nc4cnccc4[nH]3)n2)c1` [Example 38, 2-[6-({5-Chloro-2-[(phenylmethyl)oxy]phenyl}methyl)-2-pyridinyl]-1H-imidazo[4,5-c]pyridinehydrochloride] was tested, and the Ki was no more than 0.316 µM.
Work on `CC(C)COc1ccc(Cl)cc1Cc1cccc(NC(=O)c2ccc(CN3CCOCC3)cc2)n1` [Example 45, N-[6-({5-Chloro-2-[(2-methylpropyl)oxy]phenyl}methyl)-2-pyridinyl]-4-(4-morpholinylmethyl)benzamide Hydrochloride] yielded a Ki of no more than 0.316 µM.
Molecule `CC(C)COc1ccc(Cl)cc1Cc1cccc(NC(=O)c2ccc(CN3CCCC3)cc2)n1` [Example 46, N-[6-({5-Chloro-2-[(2-methylpropyl)oxy]phenyl}methyl)-2-pyridinyl]-4-(1-pyrrolidinylmethyl)benzamidehydrochloride] has a Ki of no more than 10 µM.
With `CC(C)COc1ccc(Cl)cc1Cc1cccc(NC(=O)c2ccc(CN3CCCCC3)cc2)n1` [Example 47, N-[6-({5-Chloro-2-[(2-methylpropyl)oxy]phenyl}methyl)-2-pyridinyl]-4-(1-piperidinylmethyl)benzamidehydrochloride] the Ki was no more than 10 µM.
`CC(C)COc1ccc(Cl)cc1Cc1cccc(NC(=O)c2ccc(CN3CCN(C)CC3)cc2)n1` [Example 48] gave a Ki of no more than 10 µM.
`CC(C)COc1ccc(Cl)cc1Cc1cccc(-c2nc3ccc(CN4CCCCC4)cc3[nH]2)n1` [Example 50, 2-[6-({5-Chloro-2-[(2-methylpropyl)oxy]phenyl}methyl)-2-pyridinyl]-5-(1-piperidinylmethyl)-1H-benzimidazole hydrochloride] showed a Ki of no more than 10 µM.
Molecule `CC(C)(C)OC(=O)Nc1cccc(Cc2cc(Cl)ccc2OCc2ccc(Cl)cc2F)n1` [Example 60, 1,1-Dimethylethyl {6-[(5-chloro-2-{[(4-chloro-2-fluoronhenyl)methyl]oxy}phenyl)methyl]-2-pyridinyl}carbamate] has a Ki of no more than 10 µM.
Work on `NC(=O)c1cccc(Cc2cc(Cl)ccc2OCc2ccc(Cl)cc2F)n1` [Example 63, 6-[(5-Chloro-2-{[(4-chloro-2-fluorophenyl)methyl]oxy}phenyl)methyl]-2-pyridinecarboxamide] yielded a Ki of no more than 10 µM.

Same assay, conditions: human EP1 calcium mobilisation assay; read-out: pIC50 values (converted)
Molecule `O=C(Nc1ccccn1)c1cccc(Cc2cc(Cl)ccc2OCc2ccccc2)n1` [Example 6, 6-({5-Chloro-2-[(phenylmethyl)oxy]phenyl}methyl)-N-2-pyridinyl-2-pyridinecarboxamide] has an IC50 greater than 10 µM.
With `O=C(Nc1ccccc1)c1cccc(Cc2cc(Cl)ccc2OCc2ccccc2)n1` [Example 10, 6-({5-Chloro-2-[(phenylmethyl)oxy]phenyl}methyl)-N-phenyl-2-pyridinecarboxamide] the IC50 was greater than 10 µM.
Molecule `O=C(NCc1ccccc1)c1cccc(Cc2cc(Cl)ccc2OCc2ccccc2)n1` [Example 11, 6-({5-Chloro-2-[(phenylmethyl)oxy]phenyl}methyl)-N-(phenylmethyl)-2-pyridinecarboxamide] has an IC50 greater than 10 µM.
Work on `O=C(Nc1cccc(Cc2cc(Cl)ccc2OCc2ccccc2)n1)c1cccnc1` [Example 16, N-[6-({5-Chloro-2-[(phenylmethyl)oxy]phenyl}methyl)-2-pyridinyl]-3-pyridinecarboxamide] yielded an IC50 greater than 10 µM.
Molecule `Fc1cc2nc(-c3cccc(Cc4cc(Cl)ccc4OCc4ccccc4)n3)[nH]c2cc1F` [Example 37, 2-[6-({5-Chloro-2-[(phenylmethyl)oxy]phenyl}methyl)-2-pyridinyl]-5,6-difluoro-1H-benzimidazolehydrochloride] has an IC50 greater than 10 µM.
`Fc1ccc2nc(-c3cccc(Cc4cc(Cl)ccc4OCc4ccccc4)n3)[nH]c2c1F` [Example 40, 2-[6-({5-Chloro-2-[(phenylmethyl)oxy]phenyl}methyl)-2-pyridinyl]-4,5-difluoro-1H-benzimidazolehydrochloride] showed an IC50 greater than 10 µM.

The molecules below were run against T2, human prostanoid EP1 receptor (Homo sapiens, UniProt P34995) (assay: Binding assay for the human prostanoid EP1 receptor (competition with [3H]-PGE2)). Settings: [3H]-PGE2 competition, human EP1, CHO-K1 membranes; averages of a number of experiments; read-out: pIC50 value (converted).
T2 construct: expressed in transfected cells; host or cells: CHO-K1 (membrane fraction)
T2 sequence (P34995 1-402): T1 sequence (P34995 1-402)
Protocol: Competition assay using [^3H]-PGE2.
Compound potencies are determined using a radioligand binding assay. In this assay compound potencies are determined from their ability to compete with tritiated prostaglandin E2 ([^3H]-PGE2) for binding to the human EP1 receptor.
This assay utilises Chinese hamster ovary-K1 (CHO-K1) cells into which a stable vector containing the EP1 cDNA has previously been transfected. Cells are cultured in suitable flasks containing culture medium such as DMEM:F-12 supplemented with 10% v/v foetal calf serum, 2 mM L-glutamine, 0.25 mg/ml geneticin, 10 μg/ml puromycin and 10 μM indomethacin.
Cells are detached from the culture flasks by incubation in calcium and magnesium free phosphate buffered saline containing 1 mM disodium ethylenediaminetetraacetic acid (Na2EDTA) and 10 μM indomethacin for 5 min. The cells are isolated by centrifugation at 250×g for 5mins and suspended in an ice cold buffer such as 50 mM Tris, 1 mM Na2EDTA, 140 mM NaCl, 10 μM indomethacin (pH 7.4). The cells are homogenised using a Polytron tissue disrupter (2×10 s burst at full setting), centrifuged at 48,000×g for 20mins and the pellet containing the membrane fraction is washed (optional) three times by suspension and centrifugation at 48,000×g for 20mins. The final membrane pellet is suspended in an assay buffer such as 10 mM 2-[N-morpholino]ethanesulphonic acid, 1 mM Na2EDTA, 10 mM MgCl2 (pH 6). Aliquots are frozen at −80° C. until required.
For the binding assay the cell membranes, competing compounds and [^3H]-PGE2 (3 nM final assay concentration) are incubated in a final volume of 100 μl for 30 min at 30° C. All reagents are prepared in assay buffer. Reactions are terminated by rapid vacuum filtration over GF/B filters using a Brandell cell harvester. The filters are washed with ice cold assay buffer, dried and the radioactivity retained on the filters is measured by liquid scintillation counting in Packard TopCount scintillation counter.
The data are analysed using non linear curve fitting techniques to determine the concentration of compound producing 50% inhibition of specific binding (IC50).
`O=C(Nc1cccc(Cc2cc(Cl)ccc2OCc2ccccc2)n1)C1CCCO1` (stereo not drawn) [Example 17, N-[6-({5-Chloro-2-[(phenylmethyl)oxy]phenyl}methyl)-2-pyridinyl]tetrahydro-2-furancarboxamide] gave an IC50 of no more than 0.1 µM.
For `O=C(Nc1cccc(Cc2cc(Cl)ccc2OCc2ccccc2)n1)C1CCOC1` (stereo not drawn) [Example 18, N-[6-({5-Chloro-2-[(phenylmethyl)oxy]phenyl}methyl)-2-pyridinyl]tetrahydro-3-furancarboxamide], the IC50 was no more than 0.1 µM.
`CC(C)COc1ccc(Cl)cc1Cc1cccc(-c2ncc[nH]2)n1` [Example 42, 2-({5-Chloro-2-[(2-methylpropyl)oxy]phenyl}methyl)-6-(1H-imidazol-2-yl)pyridine] showed an IC50 of no more than 0.1 µM.
With `CN(C)Cc1ccc(NC(=O)c2cccc(Cc3cc(Cl)ccc3OCc3ccc(Cl)cc3F)n2)cc1` [Example 53, 6-[(5-Chloro-2-{[(4-chloro-2-fluorophenyl)methy]oxy}phenyl)methyl]-N-{4-[(dimethylamino)methyl]phenyl}-2-pyridinecarboxamide] the IC50 was no more than 0.1 µM.
